Here are results for 20 compounds from article PMC10350920, “Development of a 2,4-Diaminothiazole Series for the Treatment of Human African Trypanosomiasis Highlights the Importance of Static–Cidal Screening of Analogues” (Journal of Medicinal Chemistry, 2023).

One data set relates to human MRC-5 fibroblasts. The data set is described as follows: Mammalian cell counter screen (MRC-5). Type of data set: cell-based. Conditions: for SI: selectivity index (EC50 MRC5/EC50 T. brucei). The method, then: (§1) Drug sensitivity assays with BSF T. b. brucei “single marker” S427 and human MRC-5 fibroblasts were conducted as previously described.[43]
In general terms: Counterscreens check selectivity or assay interference.

Data set [1] can be described thus: Mammalian cell counter screen (MRC-5). Type of data set: cell-based, human. The following applies: human, MRC-5 fibroblasts; mean values; number of replicates in parentheses. The method, then: as §1
Data set [2] deals with BSF T. b. brucei “single marker” S427. The data set is described as follows: Drug sensitivity assay with bloodstream-form T. brucei. Type of data set: cell-based. The following applies: for EC50: mean values, number of replicates in parentheses. The method, then:
as §1

Data set [3] is described as follows: Mouse liver microsomal intrinsic clearance. It is filed as in vitro ADME. The method, then:
Test compounds (0.5 μM) were incubated with female CD1 mouse liver microsomes (Xenotech LLC; 0.5 mg mL^–1 50 mM potassium phosphate buffer, pH 7.4), and the reaction started with the addition of excess NADPH (8 mg mL^–1 50 mM potassium phosphate buffer, pH 7.4). Immediately, at 0 min, and then at 3, 6, 9, 15, and 30 min, an aliquot (50 μL) of the incubation mixture was removed and mixed with acetonitrile (100 μL) to stop the reaction. The internal standard was added to all samples, the samples were centrifuged to sediment the precipitated protein, and the plates were then sealed prior to UPLC–MS/MS analysis using a Quattro Premier XE (Waters Corporation, USA). XLfit (IDBS, UK) was used to calculate the exponential decay and consequently the rate constant (k) from the ratio of the peak area of the test compound to the internal standard at each time point. The rate of intrinsic clearance (CLint) of each test compound was then calculated using the following calculation [drawing 3] where V (mL mg^–1 protein) is the incubation volume mg^–1 protein added and the microsomal protein yield is taken as 52.5 mg protein g^–1 liver. Verapamil (0.5 μM) was used as a positive control to confirm acceptable assay performance.
A general note: Liver microsomes are a subcellular fraction often used to study metabolism.

A short description of data set [4]: Rat microsomal intrinsic clearance. The following applies: second value of mouse/rat cell. Type of data set: in vitro ADME.

The EC50 is the concentration that produces a half-maximal response. The compound `CC(OCC(=O)c1sc(Nc2ccc3c(c2)OC(F)(F)O3)nc1N)C(F)(F)F` (stereo not shown) [Compound 53, 1-(4-Amino-2-((2,2-difluorobenzo[d][1,3]dioxol-5-yl)amino)thiazol-5-yl)-2-((1,1,1-trifluoropropan-2-yl)oxy)ethan-1-one] showed an SI with human MRC-5 fibroblasts of 1667. Besides, the EC50 was > 50000 nM in data set [1] and 30 nM in data set [2] (Trypanosoma brucei). Further, the “CLint (mouse)” value in data set [3] was determined as 5 mL·min/g. Moreover, the “CLint (rat)” value in data set [4] was 1.2 mL·min/g.
In the data set with human MRC-5 fibroblasts, `Nc1nc(Nc2ccc(F)c(F)c2)sc1C(=O)CN1CCCC1` [Compound 58, 1-(4-Amino-2-((3,4-difluorophenyl)amino)thiazol-5-yl)-2-(pyrrolidin-1-yl)ethanone] showed an SI of 533. Moreover, the EC50 in data set [1] was 48000 nM; in data set [2] (Trypanosoma brucei), 90 nM. In data set [3], the “CLint (mouse)” value was 2.1 mL·min/g. Also, the “CLint (rat)” value in data set [4] worked out at 2.2 mL·min/g.
On to `Nc1nc(Nc2ccc(F)c(F)c2)sc1C(=O)COC1CCC1` [Compound 46, 1-(4-Amino-2-((3,4-difluorophenyl)amino)thiazol-5-yl)-2-cyclobutoxyethanone], for which the SI in the data set with human MRC-5 fibroblasts was found to be 2500. The results for the EC50 in data set [1] and in data set [2] (Trypanosoma brucei) were > 50000 nM and 20 nM, respectively. In addition, in data set [3], the “CLint (mouse)” value was found to be 9 mL·min/g. In addition, the “CLint (rat)” value in data set [4] worked out at 8.2 mL·min/g.
`Nc1nc(Nc2ccc(F)c(F)c2)sc1C(=O)CN1CCCCC1` [Compound 61, 1-(4-Amino-2-((3,4-difluorophenyl)amino)thiazol-5-yl)-2-(piperidin-1-yl)ethanone]: the SI with human MRC-5 fibroblasts was 816. Also, the EC50 came out at 49000 nM in data set [1] and 60 nM in data set [2] (Trypanosoma brucei). For the same compound, in data set [3], the “CLint (mouse)” value came out at 7.7 mL·min/g. In addition, the “CLint (rat)” value in data set [4] came out at 6.7 mL·min/g.
As for `CC(C)OCC(=O)c1sc(Nc2ccc(F)c(F)c2)nc1N` [Compound 42, 1-(4-Amino-2-((3,4-difluorophenyl)amino)thiazol-5-yl)-2-isopropoxyethanone], the SI in the data set with human MRC-5 fibroblasts was 2500. The EC50 in data set [1] is > 50000 nM; in data set [2] (Trypanosoma brucei), 20 nM. Further, the “improvement in activity against T. brucei relative to parent analogue” value in data set [2] (SAR comparison) is 10 fold. For the same compound, the “CLint (mouse)” value in data set [3] is 9.3 mL·min/g. Also, in data set [4], the “CLint (rat)” value was 3.6 mL·min/g.
For `CC(OCC(=O)c1sc(Nc2ccc(F)c(F)c2)nc1N)C(F)(F)F` (stereo not shown) [Compound 50, 1-(4-Amino-2-((3,4-difluorophenyl)amino)thiazol-5-yl)-2-((1,1,1-trifluoropropan-2-yl)oxy)ethanone], in the data set on human MRC-5 fibroblasts, the SI is given as 8333. In addition, the EC50 is > 50000 nM in data set [1] and 6 nM in data set [2] (Trypanosoma brucei). In addition, the “CLint (mouse)” value in data set [3] was found to be 7.4 mL·min/g. For the same compound, the “CLint (rat)” value in data set [4] turned out to be 2.9 mL·min/g.
Take `Nc1nc(Nc2ccc(F)c(F)c2)sc1C(=O)CN1C[C@H]2CC[C@@H](C1)O2` [Compound 66, 1-(4-Amino-2-((3,4-difluorophenyl)amino)thiazol-5-yl)-2-((1R,5S)-8-oxa-3-azabicyclo[3.2.1]octan-3-yl)ethanone]: in the data set on human MRC-5 fibroblasts, the SI was found to be 455. Moreover, the EC50 in data set [1] is > 50000 nM; in data set [2] (Trypanosoma brucei) it was 110 nM. Also, the “CLint (mouse)” value in data set [3] was determined as 8.8 mL·min/g. In addition, the “CLint (rat)” value in data set [4] came to 15.1 mL·min/g.
Turning to `COc1ccc(Nc2nc(N)c(C(=O)COC(C)C(F)(F)F)s2)cn1` (stereo not shown) [Compound 57, 1-(4-Amino-2-((6-methoxypyridin-3-yl)amino)thiazol-5-yl)-2-((1,1,1-trifluoropropan-2-yl)oxy)ethanone], the SI in the data set on human MRC-5 fibroblasts is listed as 714. Moreover, the values for the EC50 in data set [1] and in data set [2] (Trypanosoma brucei) were > 50000 nM and 70 nM, respectively. Also, the “CLint (mouse)” value in data set [3] stood at 9.0 mL·min/g. In addition, in data set [4], the “CLint (rat)” value came out at 2.4 mL·min/g.
Taken in the same sequence, the figures for `Nc1nc(Nc2ccc(F)c(F)c2)sc1C(=O)CN1CCCC(F)(F)C1` [Compound 67, 1-(4-Amino-2-((3,4-difluorophenyl)amino)thiazol-5-yl)-2-(3,3-difluoropiperidin-1-yl)ethanone] were 250, 5000 nM, 20 nM, 33 mL·min/g and 20 mL·min/g.
On to “1-(4-Amino-2-((3,4-difluorophenyl)amino)thiazol-5-yl)-2-((2S,6R)-2,6-dimethylmorpholino)ethanone [Compound 63]”, for which the EC50 in the data set with human MRC-5 fibroblasts (mean values, number of replicates in parentheses, read-out: MRC-5 EC50) is > 50000 nM; in data set [2], 50 nM. In the data set on human MRC-5 fibroblasts, this compound gave an SI of 1000. The “CLint (mouse)” value in data set [3] is 8.1 mL·min/g. Further, the “CLint (rat)” value in data set [4] was 4.9 mL·min/g.
Consider `CC(OCC(=O)c1sc(Nc2ccc(C(F)(F)F)cc2)nc1N)C(F)(F)F` (stereo not shown) [Compound 52, 1-(4-Amino-((4-(trifluoromethyl)phenyl)amino)thiazol-5-yl)-2-((1,1,1-trifluoropropan-2-yl)oxy)ethanone], for which, in the data set on human MRC-5 fibroblasts, the SI amounted to 543. The results for the concentration giving a half-maximal response (EC50) in data set [1] and in data set [2] (Trypanosoma brucei) were 38000 nM and 70 nM, respectively. Besides, the “reduction (loss, drop off) in potency against T. brucei relative to parent analogue” value in data set [2] (SAR comparison) is reported as 10 fold. Also, in data set [3], the “CLint (mouse)” value came to 2.3 mL·min/g. The “CLint (rat)” value in data set [4] came out at 0.5 mL·min/g.
In turn, `Nc1nc(Nc2ccc(F)c(F)c2)sc1C(=O)CN1C[C@@H]2C[C@H]1CO2` [Compound 65, 1-(4-Amino-2-((3,4-difluorophenyl)amino)thiazol-5-yl)-2-((1S,4S)-2-oxa-5-azabicyclo[2.2.1]heptan-5-yl)ethanone] yielded an SI in the data set on human MRC-5 fibroblasts of 1250. For the same compound, the EC50 in data set [1] was > 50000 nM; in data set [2] (Trypanosoma brucei) it was 40 nM. Besides, the “CLint (mouse)” value in data set [3] is 4.1 mL·min/g. Besides, in data set [4], the “CLint (rat)” value stood at 4.9 mL·min/g.
Regarding `Nc1nc(NC2CCCCC2)sc1C(=O)c1ccc(F)c(F)c1` [Compound 30, (4-Amino-2-(cyclohexylamino)thiazol-5-yl)(3,4-difluorophenyl)methanone], in the data set with human MRC-5 fibroblasts, the SI is reported as 840. Also, the EC50 was 42000 nM in data set [1] and 50 nM in data set [2] (Trypanosoma brucei). In data set [3], the “CLint (mouse)” value was 12 mL·min/g.
`Nc1nc(Nc2ccc(F)c(F)c2)sc1C(=O)CN1CCOCC1` [Compound 62, 1-(4-Amino-2-((3,4-difluorophenyl)amino)thiazol-5-yl)-2-morpholinoethanone]: the EC50 was > 50000 nM in data set [1] and 40 nM in data set [2] (Trypanosoma brucei). Further, the “CLint (mouse)” value in data set [3] was 4.7 mL·min/g. The “CLint (rat)” value in data set [4] is 9 mL·min/g.
In the data set on human MRC-5 fibroblasts, `Nc1nc(Nc2ccc(F)c(F)c2)sc1C(=O)CN1CCCC1C(F)(F)F` (stereo not shown) [Compound 60, 1-(4-Amino-2-((3,4-difluorophenyl)amino)thiazol-5-yl)-2-(2-(trifluoromethyl)pyrrolidin-1-yl)ethanone] returned an SI of 1600. For the same compound, the results for the EC50 in data set [1] and in data set [2] (Trypanosoma brucei) were 32000 nM and 20 nM, respectively. Besides, in data set [3], the “CLint (mouse)” value worked out at 26 mL·min/g. In addition, the “CLint (rat)” value in data set [4] is 10 mL·min/g.
Regarding `CC(C)CC(=O)c1sc(Nc2ccc(F)cc2)nc1N` [Compound 36, 1-(4-Amino-2-((4-fluorophenyl)amino)thiazol-5-yl)-3-methylbutan-1-one], the SI in the data set with human MRC-5 fibroblasts was >455. Further, the EC50 in data set [1] is > 50000 nM; in data set [2] (Trypanosoma brucei) it was 110 nM. Moreover, the “CLint (mouse)” value in data set [3] is 8.0 mL·min/g.
`Nc1nc(NC2CCCCC2)sc1C(=O)c1ccc(F)cc1` [Compound 22, (4-Amino-2-(cyclohexylamino)thiazol-5-yl)(4-fluorophenyl)methanone] came in with an SI in the data set on human MRC-5 fibroblasts of 420. Moreover, the EC50 in data set [1] is 21000 nM; in data set [2] (Trypanosoma brucei), 50 nM. Further, in data set [3], the “CLint (mouse)” value was 4.9 mL·min/g.
For `CC1CCCN1CC(=O)c1sc(Nc2ccc(F)c(F)c2)nc1N` (stereo not shown) [Compound 59, 1-(4-Amino-2-((3,4-difluorophenyl)amino)thiazol-5-yl)-2-(2-methylpyrrolidin-1-yl)ethanone], in the data set with human MRC-5 fibroblasts, the SI is given as 1000. For the same compound, the EC50 in data set [1] is > 50000 nM; in data set [2] (Trypanosoma brucei), 50 nM. Further, the “CLint (mouse)” value in data set [3] worked out at 5.2 mL·min/g. Also, in data set [4], the “CLint (rat)” value was determined as 3.1 mL·min/g.
Regarding `COC(C)(C)C(=O)c1sc(NC2CCCCC2)nc1N` [Compound 17, 1-(4-Amino-2-(cyclohexylamino)thiazol-5-yl)-2-methoxy-2-methylpropan-1-one], the SI in the data set on human MRC-5 fibroblasts is reported as >26. The EC50 in data set [1] was > 50000 nM; in data set [2] (Trypanosoma brucei), 1900 nM. Moreover, in data set [3], the “CLint (mouse)” value came to 3.8 mL·min/g.
`Nc1nc(Nc2ccc(F)c(F)c2)sc1C(=O)COC1CC(F)(F)C1(F)F` (stereo not shown) [Compound 47, 1-(4-Amino-2-((3,4-difluorophenyl)amino)thiazol-5-yl)-2-(2,2,3,3-tetrafluorocyclobutoxy)ethanone]: in the data set with human MRC-5 fibroblasts, the SI worked out at 2900. Besides, the figures for the EC50 in data set [1] and in data set [2] (Trypanosoma brucei) were 29000 nM and 10 nM, respectively. In addition, the “CLint (mouse)” value in data set [3] was determined as 5.2 mL·min/g. Besides, in data set [4], the “CLint (rat)” value was found to be 4.4 mL·min/g.
